Data published in patent US20260049078A1, “DIFLUORO- AND TRIFLUORO-ACETYL HYDRAZIDES AS SELECTIVE HDAC6 INHIBITORS” (ITALFARMACO S.P.A., priority 2022, published 2026).

Columns and labels:
recombinant human HDAC1 = recombinant human HDAC1 (Homo sapiens (Human), UniProt Q13547); test: Enzyme inhibitory activity assay on HDAC1; assay type: biochemical; conditions: 120 minutes preincubation at 25° C.
Procedure: For each test compound, 100× concentrated DMSO solutions at 8 doses were prepared and then diluted in assay buffer (25 mM Tris-HCl, pH 8, 130 mM NaCl, 0.05% Tween-20, 10% Glycerol) to obtain 5× concentrated solutions in relation to the final concentrations (typical final concentration range—6.4-200000 nM or 0.18-50000 nM, final DMSO content—1%). Then 10 μL solution of each test compound concentration were placed on a 96-well plate in triplicate and 15 μL of 3.33× concentrated enzyme solution in the assay buffer containing 3.33× concentrated BSA (final BSA concentration 1 mg/mL) and, in case of HDAC6, 3.33× concentrated TCEP (final TCEP concentration—200 μM) were added to each well. After a period of preincubation at 25° C. (30 minutes for HDAC6 and 120 minutes for HDAC1), 25 μL of solution containing the substrate were added. As substrate, FLUOR DE LYS® deacetylase substrate (Enzo Life Sciences, cat: BML-KI104, FdL), FLUOR DE LYS®-Green substrate (Enzo Life Sciences, cat: BML-KI572, FdL_G) or Boc-Lys(Tfa)-AMC (Bachem, cat: 4060676.005, Tfal)—2× concentrated solution in assay buffer were used. Following a reaction period (30 minutes at 25° C.), 50 μL of the development solution consisting of concentrate FLUOR DE LYS® developer I (Enzo Life Sciences, ca: BML-KI105), diluted 200 times in buffer (50 mM Tris-HCl, pH 8, 137 mM NaCl, 2.7 mM KCl, 1 mM MgCl2) plus 2 μM TSA was added and, after 25 minutes at room temperature in the dark, using the Victor 1420 Multilabel Counter Perkin Elmer Wallac instrument, the fluorescence reading was carried out (excitation/emission: 485/535 nM—Fluor de Lys Green, 355/460 nM—Tfal, Fluor de Lys).
Enzymatic activity on recombinant human HDAC6 and HDAC1 was evaluated (Table 2) for each synthesized compound.

zHDAC6-CD2 wt = zHDAC6-CD2 wt (Danio rerio (Zebrafish) (Brachydanio rerio), UniProt F8W4B7); test: Isolation of long-lived/tight complex (spin column chromatography with LC-HRMS); assay type: binding; conditions: zHDAC6-CD2 wt 1 μM, compound 5 μM, 6 hours, Bio-Spin P-6
Procedure: Rapid chromatography on spin columns coupled to LC-HRMS was used to attempt the isolation of long-lived/tight complexes between HDAC6 and examples 1 and 1-A. zHDAC6-CD2 wt (1 μM) was incubated with 1 (5 μM) or 1-A (also 5 μM) as described before for 6 hours. An aliquot (60 μL) was loaded on a Bio-Spin P-6 Gel Column (Bio-Rad) that had been equilibrated with assay buffer in order to separate the HDAC6-inhibitors complexes from free compounds. After centrifugation to elute the initial fraction containing most of the enzyme, ten 200 μL aliquots were applied and eluted by centrifugation to collect the low molecular weight (free) compounds. Aliquots of the fractions were subjected to LC-HRMS analysis (as described above) for identification and quantitation of 1 and its derivatives.

HDAC6 = test: Kinetic of prodrug disappearing when incubated with HDAC6 (LC-HRMS); assay type: biochemical; conditions: HDAC6 1 μM, 5 μM compound, 25° C.; for half-life at 5 µM: HDAC6 enzyme in assay buffer, read-out: T1/2 of prodrug disappearing
Procedure: The LC-HRMS analysis was carried out using a Vanquish Flex UHPLC (Thermo Fisher Scientific) and a high-resolution mass spectrometer Orbitrap QExactive Focus (Thermo Fisher Scientific), equipped with a Heated Electrospray Ionization, operated in positive mode. A Full Scan analysis was set in the m/z range 50-500 amu. A XSelect HSS T3 50×2.1 mm, 2.5 μm chromatographic column (Waters) was used. Mobile phase A consisted of 0.1% formic acid in water and mobile phase B in 0.1% formic acid in acetonitrile. The flow rate was set to 0.5 mL/min, with a gradient program from 3 to 20% B in 3 minutes.

Sequence of recombinant human HDAC1 (Q13547 whole entry): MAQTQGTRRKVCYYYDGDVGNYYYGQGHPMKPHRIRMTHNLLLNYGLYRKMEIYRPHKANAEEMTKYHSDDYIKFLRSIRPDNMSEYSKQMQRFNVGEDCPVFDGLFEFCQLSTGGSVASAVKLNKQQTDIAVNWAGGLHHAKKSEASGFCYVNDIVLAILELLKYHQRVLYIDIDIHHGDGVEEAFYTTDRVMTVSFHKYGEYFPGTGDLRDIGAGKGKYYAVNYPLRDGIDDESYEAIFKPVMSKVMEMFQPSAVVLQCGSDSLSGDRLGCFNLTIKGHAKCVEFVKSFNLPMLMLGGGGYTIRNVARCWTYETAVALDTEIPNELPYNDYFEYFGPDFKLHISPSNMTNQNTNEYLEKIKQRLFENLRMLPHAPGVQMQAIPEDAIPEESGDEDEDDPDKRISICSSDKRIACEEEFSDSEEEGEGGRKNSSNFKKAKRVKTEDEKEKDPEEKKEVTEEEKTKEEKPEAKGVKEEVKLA
Sequence of zHDAC6-CD2 wt (F8W4B7 entry or part of it del 1-439/del 799-1081 limits assumed): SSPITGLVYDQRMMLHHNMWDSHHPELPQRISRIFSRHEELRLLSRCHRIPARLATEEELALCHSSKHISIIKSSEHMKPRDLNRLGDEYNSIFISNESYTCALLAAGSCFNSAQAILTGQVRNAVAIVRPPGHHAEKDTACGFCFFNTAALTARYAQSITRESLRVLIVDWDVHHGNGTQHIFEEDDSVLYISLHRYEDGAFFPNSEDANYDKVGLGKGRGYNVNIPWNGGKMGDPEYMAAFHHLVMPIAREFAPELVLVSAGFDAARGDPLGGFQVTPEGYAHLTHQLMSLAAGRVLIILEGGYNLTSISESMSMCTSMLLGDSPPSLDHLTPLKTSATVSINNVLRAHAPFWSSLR

SMILES: FC(F)c1nnc(-c2ccc(Cn3cc(-c4ccc(NC5=NCCN5)cc4)nn3)cc2)o1 [Compound 1-A]
- IC50 (recombinant human HDAC1): > 100 µM
- co-elution with the enzyme (fraction 1) (zHDAC6-CD2 wt): behaves as a prodrug

SMILES: Nc1nc2ccc(-c3cn(Cc4ccc(-c5nnc(C(F)F)o5)cc4F)nn3)cc2s1 [Compound 2-A]
- IC50 (recombinant human HDAC1): > 100 µM
- percentage of compound concentration (prodrug remaining) (HDAC6; time 0 min): 100.00%
- percentage of compound concentration (prodrug remaining) (HDAC6; time 30 min): 73.1%
- percentage of compound concentration (prodrug remaining) (HDAC6; time 60 min): 53.6%
- percentage of compound concentration (prodrug remaining) (HDAC6; time 120 min): 31.1%
- percentage of compound concentration (prodrug remaining) (HDAC6; time 240 min): 11.1%
- percentage of compound concentration (prodrug remaining) (HDAC6; time 360 min): 3.9%
- percentage of compound concentration (prodrug remaining) (HDAC6; time 480 min): 1.3%
- half-life at 5 µM (HDAC6): 1.29 h

SMILES: FC(F)c1nnc(-c2ccc(Cn3cc(-c4ccccc4)nn3)nc2)o1 [Compound 13-A]
- IC50 (recombinant human HDAC1): > 100 µM

SMILES: Fc1ccccc1-c1cn(Cc2ccc(-c3nnc(C(F)F)o3)cn2)nn1 [Compound 14-A]
- IC50 (recombinant human HDAC1): > 100 µM

SMILES: FC(F)c1nnc(-c2ccc(Cn3cc(-c4ccccn4)nn3)nc2)o1 [Compound 20-A]
- IC50 (recombinant human HDAC1): > 100 µM

SMILES: Nc1nc2ccc(-c3cn(Cc4ccc(-c5nnc(C(F)F)o5)cc4)nn3)cc2s1 [Compound 32-A]
- IC50 (recombinant human HDAC1): > 100 µM

SMILES: Nc1nc2ccc(-c3cn(Cc4ccc(-c5nnc(C(F)F)o5)cc4Cl)nn3)cc2s1 [Compound 37-A]
- IC50 (recombinant human HDAC1): > 100 µM
- percentage of compound concentration (prodrug remaining) (HDAC6; time 0 min): 100.00%
- percentage of compound concentration (prodrug remaining) (HDAC6; time 30 min): 88.1%
- percentage of compound concentration (prodrug remaining) (HDAC6; time 60 min): 69.2%
- percentage of compound concentration (prodrug remaining) (HDAC6; time 120 min): 38.4%
- percentage of compound concentration (prodrug remaining) (HDAC6; time 240 min): 12.1%
- percentage of compound concentration (prodrug remaining) (HDAC6; time 360 min): 3.7%
- percentage of compound concentration (prodrug remaining) (HDAC6; time 480 min): 1.3%
- half-life at 5 µM (HDAC6): 1.24 h

SMILES: Nc1nc2ccc(-c3cn(Cc4ccc(-c5nnc(C(F)F)o5)cn4)nn3)cc2s1 [Compound 38-A]
- IC50 (recombinant human HDAC1): > 100 µM

SMILES: Nc1nc2ccc(C3CN(Cc4ccc(C(=O)NNC(=O)C(F)F)s4)N=N3)cc2s1 (centres unmarked) [Compound 48-A]
- IC50 (recombinant human HDAC1): > 100 µM
